In US7951538B2, “Method to determine the risk for side effects of an SSRI treatment in a person” (The Board of Trustees of the Leland Stanford Junior …, priority 2001, dated 2011):

How the values were obtained:
[1] = system: patients with major depression; experiment: Improvement in mood on the Hamilton Depression Rating Scale over the 8 week treatment period; format: in vivo, human; conditions: not affected by the 102 T/C polymorphism
Description: (§1) All subjects were 65 years of age or older and had been free of 10 major medical problems for at least 3 months. […] Patients were excluded for clinically significant laboratory abnormalities, drug or alcohol abuse, psychosis, recent suicide attempt, and psychiatric conditions other than major depression, or treatment with antidepressant medications within 7 days of commencing the study.
On day 14, doses were increased to 30 mg once daily. […] All patients Were genotype for the 102 T/C polymorphism using the method described above.

[2] = system: patients with major depression; conditions: human, in vivo
Excerpt: as §1
Genomic DNA was extracted from EDTA-treated whole blood using the Puregene DNA extraction kit (Gentra Systems). Genotype for the 102 T/C DNA sequence polymorphism in the 5-HT2A receptor gene was determined using the method of Du et al. (Am J Med Genet. 2000 Feb. 7;96(1):56-60). […]
Discontinuations were classified as due to any event, and as due to an adverse event. […] Body weight was determined at baseline and at each subsequent visit. Actual medication taken Was determined by counting the number of tablets remaining at each clinic visit. Dosing compliance was determined by as total number of medication doses taken divided by total number of capsules given. […]

SMILES: CN1CCN2c3ncccc3Cc3ccccc3C2C1 (stereo not drawn) [mirtazapine]
- improvement in mood (decreased depression), Hamilton Depression Rating Scale [1]: statistically significant improvement
- probability of discontinuing treatment due to side effects [2]: no greater probability
- severity of side effects [2]: no greater severity
